According to patent publication US7435846B2, “Absorption and bioavailability of carotenoids, formulations and applications” (Industrial Organica, S.A. De C.V., priority 2006, dated 2008):

Design: species or system human
Conditions: in vivo
Method: Ten (10) healthy non smoking students (ranging in age from 22-27 years), were subjected to the following two treatments:
(A) Four (4) weeks of ingesting one gelatin capsule at their noonday meal, containing 20 mg of crystalline lutein dispersed in soybean oil and after a 12 hours fast (overnight) blood samples were taken early the next morning for plasma analysis.
(B) After a two (2) week interval washout period, the same group of subjects were given, during a period of four (4) weeks, a gelatin capsule containing a micellar dispersion of lutein diacetate (prepared as described in example 3) in soybean oil. Each capsule contained 24.2 mg of lutein diacetate and was ingested at lunch time. After a twelve (12) hour fast, blood samples were collected in the early morning of the next day for plasma analysis.

- ratio of the average absorption of the lutein diacetate divided by the average absorption of the free lutein: 2.81 times
Substance: lutein diacetate
